{
  "source": "patent US10980830B2",
  "about": "“Systems and methods for treating skin conditions with magnesium ion compositions” (priority 2017, dated 2021)",
  "key": {"plaque psoriasis [1]": {"system": "plaque psoriasis", "from_the_text": "In another example, a person with plaque psoriasis on the extensor surface of their right knee for over 15 years was started on magnesium treatment. Prior treatment with topical hydrocortisone was stopped two weeks prior. Applications using Johnson+Johnson Large Sterile Waterproof Pads with QUILTVENT™ Technology. 1.8 cc solution of 20% magnesium sulfate solution (APP Fresenius Kabi Lake Zurich, Ill. NDC63323-064-10, 50% solution diluted with sterile water) was applied every third day for eight hour durations. […] After the 10 applications of the 20% magnesium sulfate solution, the strength of the solution was increased to 40% for the next ten applications and to 50% for the following 10 applications.\nA trial using a 50% solution of magnesium chloride was made by dissolving the magnesium flakes with distilled water (Hinkley Springs) and applied to the Johnson+Johnson Large Sterile Waterproof Pads with QUILTVENT™. Applications were initially for eight hours every third day. […] Following the twentieth application the applications were increased to twelve hour duration with frequency increased to every other day. […] Applications were stopped to determine if total remission been achieved. […] Treatment was continued for three additional treatments."}, "adhesive capsulitis [2]": {"system": "adhesive capsulitis", "conditions": "1.8 cc of 58% wt/vol on waterproof pad, normal skin, kept in place 24 hours", "from_the_text": "The same Johnson+Johnson waterproof pad was applied to normal skin over my right shoulder affected with an exacerbation of adhesive capsulitis."}, "plaque psoriasis [3]": {"system": "plaque psoriasis", "remark": "listed apart in the source", "excerpt": "Johnson+Johnson Large Sterile Waterproof Pads with QUILTVENT™ Technology were obtained. These are similar to large waterproof bandaids measuring 2.875 inches×4 inches with a central pad that measured 1.85 inches×3 inches."}, "[4]": {"system": "sacroiliac (SI) joints pain and stiffness", "from_the_text": "In another example, a trial of transdermal magnesium ions delivered via iontophoresis in an effort to relieve pain, tenderness, and stiffness localized to sacroiliac (SI) joints. A patient with symptoms including exacerbation of chronic low back pain associated with pain, stiffness, and tenderness of both sacroiliac joints with pain radiating to the right iliac crest over a five week period. Symptoms were moderate to severe enough to make standing erect difficult at times and walking was slow and deliberate.\nAn iontophoresis pad with 120 mg of magnesium chloride diluted in 4 cc of distilled water was placed over the right sacroiliac joint for 80 minutes for delivery of 40 mA minutes with a delivery setting of 0.5 mA/minute at 8:00 pm.\nA second identical dose was delivered with the same iontophoresis electrodes in place. […] Ten minutes following delivery of the first dose to the […] SI joint a second identical iontophoresis dose was delivered with the same electrodes in place."}, "chronic lower back pain": {"system": "chronic lower back pain", "from_the_text": "In an effort to determine a threshold for therapeutic response the patient was started on gradually increasing concentrations of magnesium chloride placed on a 4 in.×4 in. hydrocolloid dressing (DupDERM™ Extra Thin CGF, by Convatec). Dosages were always approximately 1 cc sprayed onto surface of the dressing using a 20% solution of Magnesium Chloride (Mylan, NDC 674-134-50) diluted to strengths of 2%, 5%, 10% 15%, and undiluted 20%. Sterile water was used as the diluent (Hospira NDC 0409-4887-17). Dressings were kept in place for 8 hours. This method of application continued with daily graduation in the strength of solution applied. […] Using the same method of application, the dosages were increased to 30%, 40% and 50% solutions now made with magnesium flakes dissolved in distilled water."}, "[5]": {"system": "pain and stiffness of the lower back", "procedure": "In an effort to determine if passive diffusion of magnesium ions applied over a larger surface area under a hydrocolloid dressing could affect the pain and stiffness of the lower back approximately 0.8 mL of 50% magnesium chloride solution was sprayed on a 4″×4″ hydrocolloid patch (DuoDERM™ Extra Thin CGF Dressing, by ConvaTec) and the moist patch was placed over the lumbar spine where the pain was now localized. This was kept in place during an 8 hour period. […] A third application of a pre-moistened Duoderm dressing, this time with approximately 0.5 mL of 40% magnesium chloride solution, sprayed onto the surface prior to application to the lumbar spine area and worn for 48 hours continuously."}, "[6]": {"system": "recurrent plaque psoriasis"}, "adhesive capsulitis [7]": {"system": "adhesive capsulitis", "conditions": "for pain with active range of motion of the shoulder: after 16 hours of continued use", "procedure": "A second attempt using transdermal magnesium treatment to affect the pain and inflammation associated with adhesive capsulitis was performed. A 1.3 cc of 50% magnesium sulfate solution (APP Fresenius Kabi Lake Zurich, Ill. NDC63323-064-10) was placed on the positive dispersal pad in an iontophoresis device (iontoPatch 80 manufactured by Travini Medical). The NaCl solution supplied with the device was placed on the negative patch. The positive patch was placed over the tender area on the lateral shoulder and kept in place for 10 hours. It was applied at 8:00 pm and removed the next morning before showering at 6:00 am. […] After showering a second replacement patch prepared in the same manner was placed at 6:15 am, 15 minutes after the first iontoPatch was removed.\nThe positive side of the patch now placed over a tender area on the anterior shoulder. The second patch application was kept in place for a total of 13.5 hours."}, "[8]": {"conditions": "50% solution, after 15 applications"}, "[9]": {"conditions": "50% solution, after 20 applications plus ten 12 h applications every other day"}, "[10]": {"conditions": "50% solution, two weeks after applications were stopped"}, "[11]": {"conditions": "1.8 cc of 20% solution, 8 h every third day, following 7 applications"}, "[12]": {"conditions": "after increasing strength to 40% and 50% (10 applications each)"}},
  "note": "Read-outs that look alike come from different tables or passages of the source.",
  "data": [
    {"smiles": "[Cl-].[Cl-].[Mg+2]", "note": "[magnesium chloride]", "values": [
      {"measurement": "fine scaliness and inflammation, early response", "setting": "plaque psoriasis [1]; 50% solution, 8 h every third day, within days of starting", "result": "immediate improvement"},
      {"measurement": "dermal hypertrophy", "setting": "plaque psoriasis [1]; [8]", "result": "improvement"},
      {"measurement": "fine scales", "setting": "plaque psoriasis [1]; [8]", "result": "elimination"},
      {"measurement": "improvement in inflammation", "setting": "plaque psoriasis [1]; [8]", "result": "90-95%"},
      {"measurement": "dermal hypertrophy", "setting": "plaque psoriasis [1]; [9]", "result": "resolved"},
      {"measurement": "fine scaliness", "setting": "plaque psoriasis [1]; [9]", "result": "resolved"},
      {"measurement": "finding under double polarized light head set apparatus", "setting": "plaque psoriasis [1]; [10]", "result": "small erythematous islands were visualized"},
      {"measurement": "skin appearance", "setting": "plaque psoriasis [1]; [10]", "result": "appeared normal"},
      {"measurement": "pain associated with adhesive capsulitis", "setting": "adhesive capsulitis [2]", "result": "no improvement"},
      {"measurement": "skin finding over the previous psoriasis plaque", "setting": "plaque psoriasis [3]; 58% wt/vol solution kept in place for 24 hour periods, resolved with days", "result": "small 2-4 mm painless flat scabs developed"},
      {"measurement": "time until erythema and scales of the plaque started to improve", "setting": "plaque psoriasis [3]; 58% wt/vol solution on occlusive dressing, following the first application", "result": "≤ 24", "unit": "h"},
      {"measurement": "remission status of the psoriasis plaque", "setting": "plaque psoriasis [3]; 58% wt/vol solution, twelve applications, by the start of week four", "result": "complete remission"},
      {"measurement": "duration of complete remission of the psoriatic lesion", "setting": "plaque psoriasis [3]; after pads, prophylactic daily 50% wt/vol spray into the fourth month", "result": "continued into the twelfth month"},
      {"measurement": "improvement in pain and stiffness of the right SI joint", "setting": "[4]; 120 mg in 4 cc water, iontophoresis 40 mA minutes, five hours after the first dose", "result": "approximately 50%"},
      {"measurement": "duration of the improvement", "setting": "[4]; after two iontophoresis doses on each SI joint", "result": "lasted throughout the next day"},
      {"measurement": "improvement in pain and stiffness of the right SI joint", "setting": "[4]; two iontophoresis doses of 120 mg in 4 cc, five hours after completion", "result": 80, "unit": "%"},
      {"measurement": "reduction in pain and stiffness of the left SI joint", "setting": "[4]; two iontophoresis doses of 120 mg in 4 cc, two hours after treatments ended", "result": "~90", "unit": "%"},
      {"measurement": "improvement in pain and stiffness", "setting": "chronic lower back pain; 30%, 40% and 50% solutions on hydrocolloid dressing, 8 hours", "result": "incremental therapeutic benefit"},
      {"measurement": "greatest benefit estimated by the patient", "setting": "chronic lower back pain; 50% solution on hydrocolloid dressing, after the 8 hour application", "result": "over 70%"},
      {"measurement": "improvement in pain or stiffness", "setting": "chronic lower back pain; about 1 cc of 2% or 5% solution on hydrocolloid dressing, 8 hours", "result": "no therapeutic improvement"},
      {"measurement": "improvement in pain and stiffness", "setting": "chronic lower back pain; about 1 cc of 10% solution on hydrocolloid dressing, after 8 hours", "result": "10-20%"},
      {"measurement": "improvement in pain and stiffness, estimate of the patient", "setting": "chronic lower back pain; about 1 cc of 15% and 20% solution on hydrocolloid dressing, 8 hours", "result": "20-40%"},
      {"measurement": "pain and stiffness in the lower back", "setting": "[5]; 50% solution on hydrocolloid dressing for a total of 9.5 hours", "result": "complete relief"},
      {"measurement": "skin at the application area after the first patch", "setting": "[5]; 50% solution on hydrocolloid patch, after removal of the first patch", "result": "slightly hyperemic"},
      {"measurement": "sensation on application of the second patch", "setting": "[5]; 50% solution on hydrocolloid patch, second application to the same area", "result": "transient burning sensation"},
      {"measurement": "improvement in pain and stiffness of the lower back", "setting": "[5]; about 0.8 mL of 50% solution on 4x4 in. hydrocolloid patch, 8 hour period", "result": 80, "unit": "%"},
      {"measurement": "duration of complete relief", "setting": "[5]; after 9.5 hours of 50% solution on hydrocolloid dressing", "result": 48, "unit": "h"},
      {"measurement": "severity of recurring discomfort and stiffness relative to the original pain and stiffness", "setting": "[5]; on the third day after the 50% solution patches", "result": 20, "unit": "%"},
      {"measurement": "discomfort and stiffness of the lower back", "setting": "[5]; third dressing, about 0.5 mL of 40% solution, after eight hours", "result": "Resolution"}
    ]},
    {"smiles": "O=S(=O)([O-])[O-].[Mg+2]", "note": "[magnesium sulfate]", "values": [
      {"measurement": "itching", "setting": "plaque psoriasis [1]; [11]", "result": "almost total relief"},
      {"measurement": "reduction in scaling", "setting": "plaque psoriasis [1]; [11]", "result": 50, "unit": "%"},
      {"measurement": "course of improvement", "setting": "plaque psoriasis [1]; 20%, then 40% and 50% solution", "result": "plateaued following the first 10-12 applications"},
      {"measurement": "scaling between applications", "setting": "plaque psoriasis [1]; [12]", "result": "persistent scaling"},
      {"measurement": "thickness of persisting dermal hypertrophy", "setting": "plaque psoriasis [1]; [12]", "result": "approximately 3 mm"},
      {"measurement": "resolution of scaliness and erythema", "setting": "[6]; 1 cc of 1% solution intra-dermal once daily for four days, not covered, day 14 following the injections", "result": 80, "unit": "%"},
      {"measurement": "inflammatory process and erythema", "setting": "[6]; 1 cc of 1% solution intra-dermal once daily for four days, not covered, over the next few days", "result": "reduction"},
      {"measurement": "remission status of the recurrent 1 cm plaque", "setting": "[6]; after 1% injections plus iontophoresis of 1.5 cc 50% solution on days 16 and 18, by day 28", "result": "complete remission"},
      {"measurement": "effect on a small area of recurrent plaque psoriasis", "setting": "[6]; intra-dermal injections of 1% solution", "result": "effective"},
      {"measurement": "improvement in pain with active range of motion of the shoulder", "setting": "adhesive capsulitis [7]; 1.3 cc of 50% solution, iontophoresis, after 10 hours", "result": 40, "unit": "%"},
      {"measurement": "active range of motion, affected right versus unaffected left shoulder", "setting": "adhesive capsulitis [7]; 50% solution, iontophoresis, after 16 hours", "result": "no difference"},
      {"measurement": "pain with active range of motion of the shoulder", "setting": "adhesive capsulitis [7]; 50% solution, iontophoresis", "result": "no pain"},
      {"measurement": "pain with active range of motion of the shoulder", "setting": "adhesive capsulitis [7]; 50% solution, iontophoresis, listed as magnesium", "result": "complete relief"},
      {"measurement": "reduction in pain with active range of motion of the shoulder", "setting": "adhesive capsulitis [7]; 50% solution, iontophoresis, patches worn for a total of 12 hours", "result": 80, "unit": "%"},
      {"measurement": "duration of the beneficial effect", "setting": "adhesive capsulitis [7]; after two iontophoresis patches with 50% solution", "result": "no further treatment was required over the next 10 months"}
    ]}
  ]
}
